Columns and labels:
[1] = solubility in acid and salt solutions; format: physicochemical; conditions: 0.1M Na2SO4 solution
Text: All of the cucurbit[n]urils that have been observed are apparently soluble in acid solutions. Cucurbit[5 or 7 or 8 or 10]uril have been purified by successive recrystallisations from acid solutions. Because of the similar nature of the cucurbiturils, this is a slow process with more than 10 recrystallisations required to purify cucurbit[7]uril. As shown in the German patents cucurbit[6]uril can be obtained in a relatively pure state from a single recystallisation process.
The present invention provides a method for producing a range of cucurbit[n]urils and cucurbit[s,u]urils. The synthesis method results in the production of a number of cucurbit[n]urils and cucurbit[s,u]urils that have never before been produced or isolated. Separation is possible via chromatography and/or selective precipitation. The product cucurbit[n]urils and cucurbit[s,u]urils are stable to vigorous reaction conditions over a wide range of pH values. They are soluble in aqueous acid or aqueous salt solutions. The method gives cucurbiturils in much larger yields than previously possible. The use of templating compounds allows a degree of control over the relative amounts of the different cucurbit[n]urils being produced.

[2] = binding of dioxane in aqueous solutions
Text: This dioxane binding properly can form the basis of processes for the removal of dioxane. According to a further aspect of the present invention, the present invention provides a process for removing dioxane from a fluid comprising contacting the fluid with cucurbit[6]uril and/or cucurbit[7]uril.

[3] = uptake of carbon monoxide; format: binding
Text: Accordingly, the invention further provides a method for removing carbon monoxide from a liquid or vapour containing carbon monoxide by contacting the liquid or vapour with cucurbit[5]uril.

binding of dioxane [2] | Compound | dissolution in salt solution out of a mixture containing cucurbit[5-8]urils [1] | uptake of carbon monoxide [3]
bind dioxane | cucurbit[7]uril | dissolving cucurbit[6 or 7]uril out of the complex mixture | 
 | O=C1N2CN3C(=O)N4CN5C(=O)N6CN7C(=O)N8CN9C(=O)N%10CN1C1C2N2CN%11C(=O)N(CN%12C(=O)N(CN%13C(=O)N(CN%14C(=O)N(CN1C2=O)C%10C9%14)C8C7%13)C6C5%12)C4C3%11 (centres unmarked) [cucurbit[5]uril] |  | has shown uptake of carbon monoxide
bind dioxane | O=C1N2CN3C(=O)N4CN5C(=O)N6CN7C(=O)N8CN9C(=O)N%10CN%11C(=O)N%12CN1C1C2N2CN%13C(=O)N(CN%14C(=O)N(CN%15C(=O)N(CN%16C(=O)N(CN%17C(=O)N(CN1C2=O)C%12C%11%17)C%10C9%16)C8C7%15)C6C5%14)C4C3%13 (centres unmarked) [cucurbit[6]uril] | dissolving cucurbit[6 or 7]uril out of the complex mixture | 
